According to US20070128217A1 (priority 2003, published 2007):

How the values were obtained:
[1] = tested on: antibodies in sera from SARS patients (sera 1a, 1b, 2, 6, 37, 62, London, SARS-yellow, SARS-green); assay type: binding, human; design: Binding of serum 6 to linear peptides of protein X1 of SARS-CoV Urbani / Binding of serum 37 to linear peptides of protein X1 of SARS-CoV Urbani / Binding of serum 6 to looped/cyclic peptide (PEPSCAN-ELISA) / Binding of serum 37 to looped/cyclic peptide (PEPSCAN-ELISA) / Binding of serum 37 to looped/cyclic peptides of protein X1 of SARS-CoV Urbani / Binding of serum 6 to linear peptides of protein X2 / Binding of serum 37 to linear peptides of protein X2 / Binding of serum 37 to looped/cyclic peptides of protein X2 of SARS-CoV Urbani / Binding of serum 6 to linear peptides of protein M of SARS-CoV Urbani / Binding of serum 37 to linear peptides of protein M of SARS-CoV Urbani / Binding of serum 6 to looped/cyclic peptides of protein M of SARS-CoV Urbani / Binding of serum 37 to looped/cyclic peptides of protein M of SARS-CoV Urbani / Binding of serum 6 to linear peptides of protein X3 of SARS-CoV Urbani / Binding of serum 37 to linear peptides of protein X3 of SARS-CoV Urbani / Binding of serum 37 to looped/cyclic peptides of protein X3 of SARS-CoV Urbani / Binding of serum 6 to linear peptides of protein X4 of SARS-CoV Urbani / Binding of serum 37 to linear peptides of protein X4 of SARS-CoV Urbani / Binding of serum 37 to looped/cyclic peptides of protein X4 of SARS-CoV Urbani / Binding of serum 6 to linear peptides of protein X5 of SARS-CoV Urbani / Binding of serum 37 to linear peptides of protein X5 of SARS-CoV Urbani / Binding of serum 37 to looped/cyclic peptides of protein X5 of SARS-CoV Urbani / Binding of serum 6 to linear peptides of protein N of SARS-CoV Urbani / Binding of serum 37 to linear peptides of protein N of SARS-CoV Urbani / Binding of serum 6 to linear peptide (PEPSCAN-ELISA) / Binding of serum 1a to looped/cyclic peptides of protein N of SARS-CoV Urbani / Binding of serum 1b to looped/cyclic peptides of protein N of SARS-CoV Urbani / Binding of serum 2 to looped/cyclic peptides of protein N of SARS-CoV Urbani / Binding of serum 6 to looped/cyclic peptides of protein N of SARS-CoV Urbani / Binding of serum 37 to looped/cyclic peptides of protein N of SARS-CoV Urbani / Binding of serum 62 to looped/cyclic peptides of protein N of SARS-CoV Urbani / Binding of serum London to looped/cyclic peptides of protein N of SARS-CoV Urbani / Binding of serum SARS-green to looped/cyclic peptides of protein N of SARS-CoV Urbani: unit not given here
[2] = tested on: control sera (pooled serum of ten healthy LUMC hospital workers; commercial negative donor pooled serum from the Dutch bloodbank); assay type: binding, human; design: Binding of Control serum LUMC to linear peptides / Binding of Control serum Blood-bank to linear peptides / Binding of Control serum LUMC to looped peptides / Binding of Control Serum Blood-Bank to Looped peptides / Binding of Control serum LUMC to linear peptides of the protein M of SARS-CoV Urbani / Binding of Control serum Blood-bank to linear peptides of the protein M of SARS-CoV Urbani / Binding of Control serum LUMC to looped peptides of the protein M of SARS-CoV Urbani / Binding of Control Serum Blood-Bank to Looped peptides of the protein M of SARS-CoV Urbani: unit not given here
[3] = tested on: rabbit serum obtained by immunizing a rabbit with the SARS-CoV strain Frankfurt 1; assay type: binding; design: Binding of a rabbit serum to linear peptides / Binding of a rabbit serum to looped peptides / Rabbit serum linear peptides / Rabbit serum looped peptides / Binding of a rabbit serum to linear peptides of protein N of SARS-CoV Urbani (Rabbit serum linear peptides) / Binding of a rabbit serum to looped/cyclic peptides of protein N of SARS-CoV Urbani (Rabbit serum looped peptides): unit not given here
[4] = tested on: recombinant human anti-SARS-CoV antibody 03-018; assay type: binding; design: Binding of antibody 03-018 to linear peptides of the N protein of SARS-CoV Urbani / Binding of antibody 03-018 to looped/cyclic peptides of the N protein of SARS-CoV Urbani: unit not given here

Row | Sequence | Binding of serum 1a to linear peptides of protein N of SARS-CoV Urbani [1] | Binding of serum 1a to looped/cyclic peptides of protein N of SARS-CoV Urbani [1] | Binding of serum 1b to linear peptides of protein N of SARS-CoV Urbani [1] | Binding of serum 1b to looped/cyclic peptides of protein N of SARS-CoV Urbani [1] | Binding of serum 2 to linear peptides of protein N of SARS-CoV Urbani [1] | Binding of serum 2 to looped/cyclic peptides of protein N of SARS-CoV Urbani [1] | Binding of serum 6 to linear peptides of protein N of SARS-CoV Urbani [1] | Binding of serum 6 to looped/cyclic peptides of protein N of SARS-CoV Urbani [1] | Binding of serum 37 to linear peptides of protein N of SARS-CoV Urbani [1] | Binding of serum 37 to looped/cyclic peptides of protein N of SARS-CoV Urbani [1] | Binding of serum 62 to linear peptides of protein N of SARS-CoV Urbani [1] | Binding of serum 62 to looped/cyclic peptides of protein N of SARS-CoV Urbani [1] | Binding of serum London to linear peptides of protein N of SARS-CoV Urbani [1] | Binding of serum London to looped/cyclic peptides of protein N of SARS-CoV Urbani [1] | Binding of serum SARS-green to linear peptides of protein N of SARS-CoV Urbani [1] | Binding of serum SARS-green to looped/cyclic peptides of protein N of SARS-CoV Urbani [1] | Binding of serum SARS-yellow to linear peptides of protein N of SARS-CoV Urbani [1] | Binding of serum SARS-yellow to looped/cyclic peptides of protein N of SARS-CoV Urbani [1] | Binding of antibody 03-018 to linear peptides of the N protein of SARS-CoV Urbani [4] | Binding of antibody 03-018 to looped/cyclic peptides of the N protein of SARS-CoV Urbani [4] | also measured
1 | VTPSGTWLTYHGAIK | 0.3 | 0.2 | 0.1 | 0.1 | 0.2 | 0.2 | 0.2 | 0.1 | 0.7 | 0.4 | 0.8 | 0.3 | 0.7 | 0.3 | 0.5 | 0.0 | 0.5 | 0.2 | 0.1 | 0.2 | Control Serum Blood-Bank Looped peptides [2]: 0.3; Control serum Blood-bank linear peptides [2]: 0.8; Control serum LUMC linear peptides [2]: 0.6; Control serum LUMC looped peptides [2]: 0.3; Binding of a rabbit serum to linear peptides of protein N of SARS-CoV Urbani (Rabbit serum linear peptides) [3]: 0.1; Binding of a rabbit serum to looped/cyclic peptides of protein N of SARS-CoV Urbani (Rabbit serum looped peptides) [3]: 0.1
2 | VTQAFGRRGPEQTQG |  | 0.3 |  | 0.2 |  | 0.2 |  | 0.1 |  | 0.4 |  | 0.3 |  | 0.3 |  | 0.2 |  | 0.3 | 0.1 | 0.2 | Binding of serum 1a to linear peptide (PEPSCAN-ELISA) [1]: 0.3; Binding of serum 1b to linear peptide (PEPSCAN-ELISA) [1]: 0.1; Binding of serum 2 to linear peptide (PEPSCAN-ELISA) [1]: 0.1; Binding of serum 6 to linear peptide (PEPSCAN-ELISA) [1]: 0.2; Binding of serum 37 to linear peptide (PEPSCAN-ELISA) [1]: 0.6; Binding of serum 62 to linear peptide (PEPSCAN-ELISA) [1]: 0.5; Binding of serum London to linear peptide (PEPSCAN-ELISA) [1]: 0.5; Binding of serum SARS-green to linear peptide (PEPSCAN-ELISA) [1]: 0.5; Binding of serum SARS-yellow to linear peptide (PEPSCAN-ELISA) [1]: 0.7; Binding of Control Serum Blood-Bank to Looped peptides [2]: 0.6; Binding of Control serum Blood-bank to linear peptides [2]: 0.8; Binding of Control serum LUMC to linear peptides [2]: 0.7; Binding of Control serum LUMC to looped peptides [2]: 0.5; Recognition of the peptide by the rabbit serum [3]: recognized
3 | VWVATEGALNTPKDH | 0.2 | 0.3 | 0.1 | 0.3 | 0.2 | 0.6 | 0.2 | 0.4 | 0.8 | 0.6 | 0.7 | 0.6 | 0.6 | 1.2 | 0.5 | 0.7 | 0.6 | 0.6 | 0.1 | 0.3 | Binding of Control Serum Blood-Bank to Looped peptides [2]: 0.8; Binding of Control serum Blood-bank to linear peptides [2]: 0.6; Binding of Control serum LUMC to linear peptides [2]: 0.8; Binding of Control serum LUMC to looped peptides [2]: 0.6; Binding of a rabbit serum to linear peptides of protein N of SARS-CoV Urbani (Rabbit serum linear peptides) [3]: 0.1; Binding of a rabbit serum to looped/cyclic peptides of protein N of SARS-CoV Urbani (Rabbit serum looped peptides) [3]: 0.4
4 | WFTALTQHGKEELRF | 0.3 | 0.4 | 0.2 | 0.2 | 0.3 | 0.4 | 0.2 | 0.2 | 1.2 | 0.8 | 0.9 | 0.6 | 0.7 | 0.4 | 0.4 | 0.5 | 0.5 | 0.4 | 0.1 | 0.2 | Binding of Control Serum Blood-Bank to Looped peptides [2]: 0.6; Binding of Control serum Blood-bank to linear peptides [2]: 0.8; Binding of Control serum LUMC to linear peptides [2]: 0.7; Binding of Control serum LUMC to looped peptides [2]: 0.5; Binding of a rabbit serum to linear peptides of protein N of SARS-CoV Urbani (Rabbit serum linear peptides) [3]: 0.1; Binding of a rabbit serum to looped/cyclic peptides of protein N of SARS-CoV Urbani (Rabbit serum looped peptides) [3]: 0.3
